Data on 5 molecules can be found in patent publication US12516043B2, “Stiripentol derivative and use thereof” (National University Corporation Okayama University, priority 2020, dated 2026).

Each structure is given as a SMILES string.

Data set [1] can be described thus: Pharmacokinetic evaluation by oral administration to a mouse (HPLC/MS of blood plasma). In kind it is in vivo, ICR mice. The following applies: 50 mg/kg oral, blood plasma thirty minutes later; for in vivo metabolic stability: HPLC (MS for No. 1). The method, then:
Pharmacokinetic evaluation (compounds Nos. 1, 2, 4 and 9, FIGS. 6 to 10) by oral administration to a mouse:
For pharmacokinetic study, 6-7 week-old ICR mice were used in experiments. […] A vehicle or each of the compounds (50 mg/kg) were respectively orally administered to a mouse by a disposable sonde. Thirty minutes later, each mouse was decapitated for sampling their blood. Heparin sodium (10 μg/mL) was added to the blood as an anticoagulant. After each blood sample was centrifuged for 15 minutes (1,000 g, 4° C.), the supernatant was obtained as a blood plasma. Subsequently, to extract a compound, ethyl acetate was added to the obtained blood plasma, air-dried with nitrogen gas, and dissolved again with acetonitrile. The sample pretreated in this manner was subjected to the following analysis (HPLC, MS). In performing the HPLC analysis, constituents of the blood plasma were separated by the HPLC system (manufactured by JASCO Corporation) using a C18 reverse-phase column, at a flow rate of 1.0 mL/min. For analysis of the compound No. 1, a mobile phase consisting of acetonitrile (80%) and water (20%) was used, whereas a mobile phase consisting of acetonitrile (70%) and water (30%) was used for analysis of Compounds No. 2, No. 4 and No. 9. Individual compounds were detected by a UV detector at 295 nm. The data were obtained/analyzed by a software, ChromNAV (manufactured by JASCO Corporation). To identify an unchanged compound within the blood plasma constituents, the compound itself was directly analyzed as a standard substance by HPLC and the retention times of these compounds were compared. In the MS analysis, LC-MS/MS system (Agilent 1200 HPLC-Chip and 6520 Accurate-Mass Q-TOF), manufactured by Agilent Technologies, was used. The pretreated sample was allowed to adsorb onto a C18 chip by use of a mobile phase consisting of acetonitrile (25%) and water (75%) containing formic acid (0.1%), and thereafter, the blood plasma constituents were separated by a mobile phase consisting of acetonitrile (60%) and water (40%) containing formic acid (0.1%). The MS spectrum of the blood plasma constituents separated was detected (obtained) by a mass spectrometer, and data was obtained/analyzed by a software, MassHunter Qualitative Analysis (Agilent Technologies).

The target in data set [2] is human LDH5 (tetramer of LDHA) (Homo sapiens, UniProt P00338). The data set is described as follows: Lactate dehydrogenase inhibitory action, enzymatic reaction plus chromogenic reaction (LDH5). In kind it is biochemical. The conditions noted are these: FIG. 1A. Here is the method: (§1) Evaluation of Lactate Dehydrogenase Inhibitory Action (Compounds Nos. 1 to 10, FIGS. 1 to 5):
(§2) Lactate dehydrogenase catalyzes production of lactic acid and NAD from pyruvic acid and NADH. […] In order to evaluate the enzymatic activity of lactate dehydrogenase, experiments were carried out using an evaluation system (Patent Literature 1, Non-Patent Literature 9) consisting of an enzymatic reaction (step 1) and a chromogenic reaction (step 2). In the enzymatic reaction of step 1, sodium pyruvate (100 μM), NADH (100 μM) and lactate dehydrogenase (human LDH1 or LDH5) were added, further an inhibitor (Compounds Nos. 1 to 10) different in concentration was added. The mixture was subjected to a reaction carried out in the presence of a 100 mM sodium phosphate buffer (pH 7.3, 37° C.) for 60 minutes (200 μL/well). In this stage, absorbance of the background at 492 nm was measured by a plate reader (absorbance before chromogenic reaction). […] INT changed into INT formazan by the action of diaphorase in the presence of NADH, and absorbance of INT formazan at 492 nm was measured by a plate reader (absorbance after chromogenic reaction). […] Then, the absorbance before chromogenic reaction was subtracted from the absorbance after chromogenic reaction. The value obtained by the above calculation was regarded as an “absorbance change value (ΔA)”. […]

A short description of data set [3]: Solubility in lipid (choice of vehicle). Type of data set: physicochemical.
The target of data set [4] is human LDH1 (tetramer of LDHB) (Homo sapiens, UniProt P07195). The data set is described as follows: Lactate dehydrogenase inhibitory action, enzymatic reaction plus chromogenic reaction (LDH1). In kind it is biochemical. The conditions noted are these: FIG. 1B, each n=3. The method, then: as §1, §2
human LDH1 (tetramer of LDHB), sequence (P07195 whole entry): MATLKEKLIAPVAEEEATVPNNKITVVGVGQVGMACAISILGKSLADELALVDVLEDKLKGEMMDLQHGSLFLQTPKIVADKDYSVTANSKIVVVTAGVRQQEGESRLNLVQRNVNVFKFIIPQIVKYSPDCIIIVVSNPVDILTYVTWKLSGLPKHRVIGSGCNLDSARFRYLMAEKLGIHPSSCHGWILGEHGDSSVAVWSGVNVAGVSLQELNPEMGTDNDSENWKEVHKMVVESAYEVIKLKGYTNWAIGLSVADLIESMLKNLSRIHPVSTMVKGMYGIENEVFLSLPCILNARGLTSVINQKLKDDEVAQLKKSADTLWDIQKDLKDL
For data set [5], the system named is epileptic seizures in hippocampal sclerosis model mouse. The data set is described as follows: Pharmacological effect evaluation using a hippocampal sclerosis model mouse. In kind it is in vivo, ICR mice. The method, then: Pharmacological Effect Evaluation by Using a Hippocampal Sclerosis Model Mouse (Compound No. 2, FIG. 11):
Hippocampal sclerosis model mice for use in evaluating anti-epileptic action were prepared according to the literatures already published (Non-Patent Literatures 3 and 13). First, 6-7 week-old ICR mice were each anesthetized with a mixed solution of ketamine (100 mg/kg) and xylazine (40 mg/kg) and fixed to a stereotaxic apparatus. Subsequently, the scalp was removed and a U-shaped plastic frame required for recording electroencephalography in vivo was attached to the head. Then, a small amount of kainic acid (0.8 nmol, 40 nL) for inducing epilepsy was injected to the dorsal hippocampus (1.6 mm posterior to the bregma, 1.6 mm laterally from the center line, 1.4 mm (depth) from the brain surface) via a micro glass electrode and a metal electrode (diameter 200 μm) for measuring epileptic seizures was embedded in the proximity of the injection site of kainic acid. A reference electrode was installed in the cerebellum. Three weeks after the surgery, epileptic seizures spontaneously generated from the hippocampus were measured to evaluate anti-epilepsy action. Each mouse head was immobilized via a U-shaped frame, brain waves of the hippocampus was recorded through an analog filter of 0.5-30 Hz and digitized by an AD converter at a sampling rate of 1 kHz. After baseline brain wave was measured for one hour, a vehicle or Compound No. 2 was orally administered to each mouse by a disposable sonde, and their brain waves were recorded for further 3 hours. Epileptic seizures were analyzed by Igor Pro (WaveMetrics) and epileptic seizures lasting for 8 seconds or more were counted. Statistical analysis was carried out by SigmaPlot (Systat Software).

The test system of a further data set is lactate dehydrogenase. The conditions noted are these: Non-Patent Literature 3; cited from earlier work.

As to `O=C(/C=C/c1ccc2c(c1)OCO2)c1ccc(-c2ccccc2)cc1` [Compound No. 1, reference compound], in data set [1], the “unchanged compound in the blood after oral administration” value (from here on “unchanged compound in the blood”) is recorded as “quickly disappears” and the “in vivo metabolic stability” value was “low”. The “concentration at which inhibitory activity against LDHA was exerted” value in data set [2] (n=3) is 5 µM. Also, the solubility in lipid entry in data set [3] is “highly soluble in lipid”. Moreover, the “inhibitory activity against LDHB (in words)” value in data set [4] was “almost the same strong inhibitory activity”.
In the case of `OC(/C=C/c1ccc2c(c1)OCO2)c1ccc(-c2ccccc2)cc1` (centres unmarked) [Compound No. 2], in data set [1], the “unchanged compound in the blood” value was “maintained” and the “in vivo metabolic stability” value is recorded as “high”. Besides, the “inhibitory activity against LDHA (in words)” value in data set [2] (n=3, compared with compound No. 1 (5 μM)) is “exert an inhibitory activity at the same concentration”. Moreover, in data set [3], the solubility in lipid entry is on record as “highly soluble in lipid”. Also, the “inhibitory activity against LDHB (in words)” value in data set [4] is “almost the same strong inhibitory activity”. Besides, in data set [5] (150 mg/kg oral, 2.5 hours after administration, FIG. 11B), the “epileptic seizure in the hippocampus” value was “suppressed”. Further, the “number of seizures, dose dependency versus vehicle” value in data set [5] (dose of 50 mg/kg oral, 2-3 hours after administration, FIG. 11D, n=11) is listed as “significantly decreases”. Further, in data set [5] (oral, one hour after the administration, FIG. 11C, n=10), the “number of spontaneous epileptic seizures per hour versus baseline” value is given as “significant decrease”.
Turning to `OC(/C=C/c1ccc2c(c1)OCO2)c1ccc(-c2ccc(F)cc2)cc1` (centres unmarked) [Compound No. 4], in data set [1], the “unchanged compound in the blood” value was “maintained” and the “in vivo metabolic stability” value is recorded as “high”. Further, the solubility in lipid entry in data set [3] is recorded as “highly soluble in lipid”.
For the molecule `OC(/C=C/c1ccc2c(c1)OCO2)c1ccc(-c2ccccc2)cc1F` (centres unmarked) [Compound No. 9], in data set [1], the “unchanged compound in the blood” value was “maintained” and the “in vivo metabolic stability” value is “high”. In addition, the solubility in lipid entry in data set [3] is reported as “highly soluble in lipid”.
Take `CC(C)(C)C(O)/C=C/c1ccc2c(c1)OCO2` (centres unmarked) [stiripentol]: the “inhibitory action against lactate dehydrogenase” value with lactate dehydrogenase is listed as “weak”.
